Measured values as given in ChEMBL document CHEMBL4428085, “Benzimidazole analogs as WTA biosynthesis inhibitors targeting methicillin resistant Staphylococcus aureus” (Bioorg Med Chem Lett, 2016).

Experiments:
[1] = Inhibition of Staphylococcus aureus TarO assessed as reversal of targocil-mediated bacterial growth inhibition
[2] = test system: Staphylococcus aureus subsp. aureus COL; test: Inhibition of methicillin-resistant Staphylococcus aureus COL TarO assessed as concentration of compound for potentiation of action of imipenem-mediated bacterial growth inhibition by 95 %
[3] = Inhibition of Staphylococcus aureus TarO
[4] = Inhibition of Staphylococcus aureus TarO assessed as suppression of bacteriophageK-mediated cell lysis
Staphylococcus aureus [5] = test: Inhibition of methicillin-resistant Staphylococcus aureus TarO assessed as potentiation of action of imipenem-mediated bacterial growth inhibition by measuring percentage of compound MITC95<=25 uM for 25 isolates; design: scale not given: the % may be the effect or the level left
[6] = test system: Staphylococcus epidermidis; test: Inhibition of methicillin-resistant Staphylococcus epidermidis TarO assessed as potentiation of action of imipenem-mediated bacterial growth inhibition by measuring percentage of compound MITC95<=25 uM for 25 isolates; design: scale not given: the % may be the effect or the level left
Staphylococcus aureus [7] = test: Antibacterial activity against methicillin-resistant Staphylococcus aureus COL; format: functional
[8] = AUC (0 to 24 hrs) in rat at 2 mg/kg, po; format: ADME, organism-based; design: dose 2 mg/kg, time < 24 hr, route oral; conditions: in vivo
[9] = Half life in rat at 2 mg/kg, po; format: ADME, organism-based; conditions: in vivo
[10] = Oral bioavailability in rat at 2 mg/kg; format: ADME, organism-based; conditions: in vivo

SMILES | EC50 [1] [µM] | MITC95 [2] [µM] | IC50 [3] [nM] | EC50 [4] [µM] | Activity (Staphylococcus aureus [5]) [%] | Activity [6] [%] | Activity (Staphylococcus aureus [7]) [µM] | AUC [8] [µM·h] | half-life [9] [min] | bioavailability [10] [%]
CCN(C(=O)CCn1c(-c2ccc(-n3ccnn3)cc2)nc2ccccc21)C1CCCCC1 | > 200 | 19 | 3800 | > 200 | – | – | – | – | – | –
CCN(C(=O)CCn1c2cc(-c3ccccc3)ccc2nc1[C@H]1CC[C@H](CC)CC1)C1CCCCC1 | 0.03 | 0.2 | 4 | 0.2 | 72 | 12 | – | – | – | –
CCN(C(=O)CCn1c2cc(-c3ccc(O)cc3)ccc2nc1[C@H]1CC[C@H](CC)CC1)C1CCCCC1 | 1.8 | 0.3 | 100 | 29 | 56 | – | – | – | – | –
CCN(C(=O)CCn1c2cccc(F)c2nc1[C@H]1CC[C@H](CC)CC1)C1CCCCC1 | 0.4 | 0.1 | 30 | 0.8 | 68 | 58 | – | – | – | –
CCN(C(=O)CCn1c(C2CCCN(C(=O)OC(C)(C)C)C2)nc2cc(F)ccc21)C1CCCCC1 (stereo not given) | 1.5 | 0.5 | 60 | 1.7 | 64 | 4 | – | – | – | –
CCN(C(=O)CCn1c2cc(F)ccc2nc1[C@H]1CC[C@H](CC)CC1)C1CCCCC1 | 0.7 | 0.1 | 20 | 0.8 | 68 | 42 | – | – | – | –
CCN(C(=O)CCn1c(-c2ccc(OCC(F)(F)F)cc2)nc2ccccc21)C1CCCCC1 | 1.1 | 0.3 | 40 | 1.2 | 68 | 4 | – | – | – | –
CCN(C(=O)CCn1c(-c2ccc(C(=O)OC)cc2)nc2ccccc21)C1CCCCC1 | 4.3 | 1.2 | 100 | 6.9 | 64 | – | – | – | – | –
CCN(C(=O)CCn1c2c(F)cccc2nc1[C@H]1CC[C@H](CC)CC1)C1CCCCC1 | 0.4 | 0.8 | 40 | 0.9 | 68 | 75 | – | – | – | –
CCN(C(=O)CCn1c(C2CCCNC2)nc2cc(F)ccc21)C1CCCCC1 (stereo not given) | > 200 | 200 | 16500 | > 200 | – | – | – | – | – | –
CCN(C(=O)CCn1c(C2CCCN(C(C)=O)C2)nc2cc(F)ccc21)C1CCCCC1 (stereo not given) | > 200 | 100 | 48000 | > 200 | – | – | – | – | – | –
CCN(C(=O)CCn1c2cc(-c3ccc(CO)cc3)ccc2nc1[C@H]1CC[C@H](CC)CC1)C1CCCCC1 | > 200 | 4.7 | 300 | > 200 | – | – | – | – | – | –
CCOC(=O)N1CCCC(c2nc3cc(F)ccc3n2CCC(=O)N(CC)C2CCCCC2)C1 (stereo not given) | 3.3 | 0.4 | 100 | 3.3 | 68 | – | – | – | – | –
CCN(C(=O)CCn1c2cc(-c3cnn(C)c3)ccc2nc1[C@H]1CC[C@H](CC)CC1)C1CCCCC1 | 0.6 | 0.2 | 50 | 0.7 | 80 | 67 | – | – | – | –
CC1(C)[C@@H]2CC[C@@]1(C)[C@@H](NC(=O)CCn1c(C3CCCCC3)nc3ccccc31)C2 | 6 | 3 | 400 | 3 | – | – | >200 | – | – | –
CCN(C(=O)CCn1c2ccc(F)cc2nc1[C@H]1CC[C@H](CC)CC1)C1CCCCC1 | 0.03 | 0.004 | 40 | 0.04 | 76 | 54 | > 200 | 0.9 | 300 | 15
CCN(C(=O)CCn1c2cc(-c3cn[nH]c3)ccc2nc1[C@H]1CC[C@H](CC)CC1)C1CCCCC1 | 24 | 6.3 | 200000 | 100 | – | – | – | – | – | –
CCN(C(=O)CCn1c2ccc(Br)cc2nc1[C@H]1CC[C@H](CC)CC1)C1CCCCC1 | – | – | < 400 | – | – | – | >200 | – | – | –
CCN(C(=O)CCn1c2cc(C(=O)O)ccc2nc1[C@H]1CC[C@H](CC)CC1)C1CCCCC1 | > 200 | 200 | 147000 | > 200 | – | – | – | – | – | –
CCN(C(=O)CCn1c2cc(C(=O)NC3CC3)ccc2nc1[C@H]1CC[C@H](CC)CC1)C1CCCCC1 | 90 | 50 | 200000 | 108 | – | – | – | – | – | –
CCNC(=O)N1CCCC(c2nc3cc(F)ccc3n2CCC(=O)N(CC)C2CCCCC2)C1 (stereo not given) | > 200 | 100 | 28000 | > 200 | – | – | – | – | – | –
CCN(C(=O)CCn1c2cc(CO)ccc2nc1[C@H]1CC[C@H](CC)CC1)C1CCCCC1 | 7.1 | 0.5 | 100 | 5.4 | 68 | – | – | – | – | –
CCN(C(=O)CCn1c2cc(CN(C)C)ccc2nc1[C@H]1CC[C@H](CC)CC1)C1CCCCC1 | > 200 | 25 | 200000 | > 200 | – | – | – | – | – | –
